In patent US20230286958A1, “PLASMA KALLIKREIN INHIBITORS” (Merck Sharp & Dohme LLC, priority 2020, published 2023):

Assays:
Human plasma kallikrein = Human plasma kallikrein (Homo sapiens (Human), UniProt P03952); assay: Kallikrein Assay (fluorogenic substrate Acetyl-K-P-R-AFC); assay type: biochemical; settings: Plasma Kallikrein (PKal)
In short: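 Ki is derived from IC50 with the Cheng-Prusoff equation, and IC50 from the inflection point of a four-parameter logistic curve. The rate of AFC release is read with 0.5 nM purified enzyme and […] substrate at room temperature or 37 °C.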

human Factor XIa = human Factor XIa (Homo sapiens (Human), UniProt P03951); assay: Factor XIa Assay (fluorogenic substrate GPR-AFC); assay type: biochemical; settings: Factor XIa (FXIa)
Chain of human Factor XIa (P03951 388-625 limits assumed): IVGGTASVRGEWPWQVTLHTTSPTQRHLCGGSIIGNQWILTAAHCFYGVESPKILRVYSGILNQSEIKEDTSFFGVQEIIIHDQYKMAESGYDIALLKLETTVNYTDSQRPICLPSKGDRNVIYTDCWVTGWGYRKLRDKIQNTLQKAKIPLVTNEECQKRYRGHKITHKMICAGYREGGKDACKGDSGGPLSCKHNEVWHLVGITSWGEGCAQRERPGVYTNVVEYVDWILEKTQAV
Chain of human Factor XIa (P03951 19-387 partner limits assumed): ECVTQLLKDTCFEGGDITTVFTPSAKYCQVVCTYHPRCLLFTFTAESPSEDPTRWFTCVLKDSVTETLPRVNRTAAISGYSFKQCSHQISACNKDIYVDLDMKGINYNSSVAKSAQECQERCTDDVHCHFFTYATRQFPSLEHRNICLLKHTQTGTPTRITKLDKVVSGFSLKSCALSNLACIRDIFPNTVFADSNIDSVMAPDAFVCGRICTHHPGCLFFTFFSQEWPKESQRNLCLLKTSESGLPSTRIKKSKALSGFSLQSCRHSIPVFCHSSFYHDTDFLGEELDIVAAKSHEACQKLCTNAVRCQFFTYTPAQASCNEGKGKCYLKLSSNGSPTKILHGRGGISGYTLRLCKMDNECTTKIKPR

Chain of Human plasma kallikrein (P03952 391-638): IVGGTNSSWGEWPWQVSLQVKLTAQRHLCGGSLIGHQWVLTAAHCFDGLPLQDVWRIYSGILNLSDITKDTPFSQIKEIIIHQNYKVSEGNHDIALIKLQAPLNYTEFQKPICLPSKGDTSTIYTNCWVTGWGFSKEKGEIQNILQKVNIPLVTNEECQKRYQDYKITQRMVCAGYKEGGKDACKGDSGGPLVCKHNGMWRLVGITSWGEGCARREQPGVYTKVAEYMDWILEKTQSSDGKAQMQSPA
Chain of Human plasma kallikrein (P03952 20-390 partner): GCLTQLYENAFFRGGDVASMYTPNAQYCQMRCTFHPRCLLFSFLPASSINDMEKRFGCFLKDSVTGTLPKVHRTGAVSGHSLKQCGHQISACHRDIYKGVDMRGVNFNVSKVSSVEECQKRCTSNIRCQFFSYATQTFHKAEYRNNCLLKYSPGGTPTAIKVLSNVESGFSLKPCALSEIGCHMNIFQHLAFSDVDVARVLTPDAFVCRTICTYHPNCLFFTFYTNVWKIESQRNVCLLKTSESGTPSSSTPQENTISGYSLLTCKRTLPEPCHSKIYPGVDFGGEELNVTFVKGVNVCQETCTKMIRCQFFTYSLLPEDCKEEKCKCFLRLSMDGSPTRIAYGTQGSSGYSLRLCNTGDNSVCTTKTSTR

| IC50 (Human plasma kallikrein) [nM] | IC50 (human Factor XIa) [nM] | Compound |
| --- | --- | --- |
| 19.9 | > 10000 | Cc1nc(Cn2cc(NC(=O)c3nc(-c4c(C(F)F)ccc(Cl)c4F)cnc3C)cn2)ncc1N1C[C@H]2C[C@H]2C1=O [Example 93, 6-(3-Chloro-6-(difluoromethyl)-2-fluorophenyl)-3-methyl-N-(1-((4-methyl-5-((1R,5S)-2-oxo-3-azabicyclo[3.1.0]hexan-3-yl)pyrimidin-2-yl)methyl)-1H-pyrazol-4-yl)pyrazine-2-carboxamide] |
| 1.6 | 1010 | Cc1nc(Cn2cc(NC(=O)c3nc(-c4c(C(F)F)ccc(Cl)c4F)cnc3C(F)F)cn2)cnc1N1C[C@H]2C[C@H]2C1=O [Example 94, 6-(3-Chloro-6-(difluoromethyl)-2-fluorophenyl)-3-(difluoromethyl)-N-(1-((6-methyl-5-((1R, 5S)-2-oxo-3-azabicyclo[3.1.0]hexan-3-yl)pyrazin-2-yl)methyl)-1H-pyrazol-4-yl)pyrazine-2-carboxamide] |
| 14.3 | 4590 | COc1nc(N2C[C@H]3C[C@H]3C2=O)ncc1Cn1cc(NC(=O)c2nc(-c3c(C(F)F)ccc(Cl)c3F)cnc2C)cn1 [Example 95, 6-(3-Chloro-6-(difluoromethyl)-2-fluorophenyl)-N-(1-((4-methoxy-2-((1R, 5S)-2-oxo-3-azabicyclo[3.1.0]hexan-3-yl)pyrimidin-5-yl)methyl)-1H-pyrazol-4-yl)-3-methylpyrazine-2-carboxamide] |
| 4.8 | 1200 | Cc1ccc(Cl)c(F)c1-c1cnc(C)c(C(=O)Nc2cnn(Cc3nnc(N4C[C@H]5C[C@H]5C4=O)c(C)c3C)c2)n1 [Example 112, 6-(3 -Chloro-2-fluoro-6-methylphenyl)-N-(1-((4,5-dimethyl-6-((1R,5S)-2-oxo-3-azabicyclo[3.1.0]hexan-3-yl)pyridazin-3-yl)methyl)-1H-pyrazol-4-yl)-3-methylpyrazine-2-carboxamide] |
| 2.1 | 114 | Cc1cc(Cn2cc(NC(=O)c3nc(-c4c(OC(F)F)ccc(Cl)c4F)cnc3C)cn2)nnc1N1C[C@H]2C[C@H]2C1=O [Example 113, 6-(3-Chloro-6-(difluoromethoxy)-2-fluorophenyl)-3-methyl-N-(1-((5-methyl-6-((1R,SS)-2-oxo-3-azabicyclo[3.1.0]hexan-3-yl)pyridazin-3-yl)methyl)-1H-pyrazol-4-yl)pyrazine-2-carboxamide] |
| 19.1 | 4380 | O=C(Nc1cnn(Cc2cnc(N3C[C@H]4C[C@H]4C3=O)nc2)c1)c1nc(-c2c(C(F)F)ccc(Cl)c2F)cnc1COC1CC1 [Example 116, 6-(3-Chloro-6-(difluoromethyl)-2-fluorophenyl)-3-(cyclopropoxymethyl)-N-(1-((2-((1R,5S)-2-oxo-3-azabicyclo[3.1.0]hexan-3-yl)pyrimidin-5-yl)methyl)-1H-pyrazol-4-yl)pyrazine-2-carboxamide] |
| 47 | > 10000 | Cc1ncc(-c2c(C(F)F)ccc(Cl)c2F)nc1C(=O)Nc1cnn(Cc2ncc(N3C[C@H]4C[C@H]4C3=O)cc2F)c1 [Example 138, 6-(3-Chloro-6-(difluoromethyl)-2-fluorophenyl)-N-(1-((3-fluoro-5-((1R,5S)-2-oxo-3-azabicyclo[3.1.0]hexan-3-yl)pyridin-2-yl)methyl)-1H-pyrazol-4-yl)-3-methylpyrazine-2-carboxamide] |
| 2.4 | > 10000 | O=C(Nc1cnn(Cc2ccc(N3C[C@H]4C[C@H]4C3=O)cc2)c1)c1cncc(-c2c(C(F)F)ccc(Cl)c2F)n1 [Example 145, 6-(3-Chloro-6-(difluoromethyl)-2-fluorophenyl)-N-(1-(4-((1R,5S)-2-oxo-3-azabicyclo[3.1.0]hexan-3-yl)benzyl)-1H-pyrazol-4-yl)pyrazine-2-carboxamide] |
| 0.9 | 244 | Cc1ncc(-c2c(C(F)F)ccc(Cl)c2F)nc1C(=O)Nc1cnn(Cc2cnc(N3C[C@H]4C[C@H]4C3=O)c3c2OCO3)c1 [Example 149, 6-(3-Chloro-6-(difluoromethyl)-2-fluorophenyl)-3-methyl-N-(1-((4-((1R,5S)-2-oxo-3-azabicyclo[3.1.0]hexan-3-yl)-[1,3]dioxolo[4,5-c]pyridin-7-yl)methyl)-1H-pyrazol-4-yl)pyrazine-2-carboxamide] |
| 177 | > 10000 | Cc1nc(N2C[C@H]3C[C@H]3C2=O)c(F)cc1C(C)n1cc(NC(=O)c2cncc(-c3c(C(F)F)ccc(Cl)c3F)n2)cn1 (stereo partly drawn) [Example 150, 6-(3-Chloro-6-(difluoromethyl)-2-fluorophenyl)-N-(1-(1-(5-fluoro-2-methyl-6-((1R.5S)-2-oxo-3-azabicyclo[3.1.0]hexan-3-yl)pyridin-3-yl)ethyl)-1H-pyrazol-4-yl)pyrazine-2-carboxamide] |
| 5.8 | > 10000 | Cc1nc(N2C[C@H]3C[C@H]3C2=O)c(F)cc1C(C)n1cc(NC(=O)c2cncc(-c3c(C(F)F)ccc(Cl)c3F)n2)cn1 (stereo partly drawn) [Example 151, 6-(3-Chloro-6-(difluoromethyl)-2-fluorophenyl)-N-(1-(1-(5-fluoro-2-methyl-6-((1R.5S)-2-oxo-3-azabicyclo[3.1.0]hexan-3-yl)pyridin-3-yl)ethyl)-1H-pyrazol-4-yl)pyrazine-2-carboxamide] |
| 0.9 | 162 | Cc1nc(N2C[C@H]3C[C@H]3C2=O)ncc1Cn1cc(NC(=O)c2nc(-c3c(C(F)F)ccc(Cl)c3F)cnc2CO)cn1 [Example 156, 6-(3-Chloro-6-(difluoromethyl)-2-fluorophenyl)-3-(hydroxymethyl)-N-(1-((4-methyl-2-((1R,5S)-2-oxo-3-azabicyclo[3.1.0]hexan-3-yl)pyrimidin-5-yl)methyl)-1H-pyrazol-4-yl)pyrazine-2-carboxamide] |
| 1020 | > 10000 | Cc1nc(N2C[C@@H]3C[C@@H]3C2=O)ncc1[C@@H](CO)n1cc(NC(=O)c2cncc(-c3c(C(F)F)ccc(Cl)c3F)n2)cn1 [Example 157, 6-(3-Chloro-6-(difluoromethyl)-2-fluorophenyl)-N-(1-((S)-2-hydroxy-1-(4-methyl-2-((1S,5R)-2-oxo-3-azabicyclo[3.1.0]hexan-3-yl)pyrimidin-5-yl)ethyl)-1H-pyrazol-4-yl)pyrazine-2-carboxamide] |
| 2720 | > 10000 | Cc1nc(N2C[C@@H]3C[C@@H]3C2=O)ncc1[C@H](CO)n1cc(NC(=O)c2cncc(-c3c(C(F)F)ccc(Cl)c3F)n2)cn1 [Example 158, 6-(3-Chloro-6-(difluoromethyl)-2-fluorophenyl)-N-(1-((R)-2-hydroxy-1-(4-methyl-2-((1S,5R)-2-oxo-3-azabicyclo[3.1.0]hexan-3-yl)pyrimidin-5-yl)ethyl)-1H-pyrazol-4-yl)pyrazine-2-carboxamide] |
| 11.2 | 6900 | Cc1nc(N2C[C@H]3C[C@H]3C2=O)ncc1[C@@H](CO)n1cc(NC(=O)c2cncc(-c3c(C(F)F)ccc(Cl)c3F)n2)cn1 [Example 159, 6-(3-Chloro-6-(difluoromethyl)-2-fluorophenyl)-N-(1-((S)-2-hydroxy-1-(4-methyl-2-((1R,5S)-2-oxo-3-azabicyclo[3.1.0]hexan-3-yl)pyrimidin-5-yl)ethyl)-177-pyrazol-4-yl)pyrazine-2-carboxamide] |
| 249 | > 10000 | Cc1nc(N2C[C@H]3C[C@H]3C2=O)ncc1[C@H](CO)n1cc(NC(=O)c2cncc(-c3c(C(F)F)ccc(Cl)c3F)n2)cn1 [Example 160, 6-(3-Chloro-6-(difluoromethyl)-2-fluorophenyl)-N-(1-((R)-2-hydroxy-1-(4-methyl-2-((1R,5S)-2-oxo-3-azabicyclo[3.1.0]hexan-3-yl)pyrimidin-5-yl)ethyl)-1H-pyrazol-4-yl)pyrazine-2-carboxamide] |
| 20.7 | > 10000 | C[C@H](c1cnc(N2C[C@H]3C[C@H]3C2=O)nc1N)n1cc(NC(=O)c2cncc(-c3c(C(F)F)ccc(Cl)c3F)n2)cn1 [Example 170, N-(1-((R)-1-(4-Amino-2-((1R,5S)-2-oxo-3-azabicvclo[3.1.0]hexan-3-yl)pyrimidin-5-yl)ethyl)-1H-pyrazol-4-yl)-6-(3-chloro-6-(difluoromethyl)-2-fluorophenyl)pyrazine-2-carboxamide] |
| 713 | > 10000 | C[C@@H](c1cnc(N2C[C@H]3C[C@H]3C2=O)nc1N)n1cc(NC(=O)c2cncc(-c3c(C(F)F)ccc(Cl)c3F)n2)cn1 [Example 171, N-(1-((S)-1-(4-Amino-2-((1R,5S)-2-oxo-3-azabicyclo[3.1.0]hexan-3-yl)pyrimidin-5-yl)ethyl)-1H-pyrazol-4-yl)-6-(3-chloro-6-(difluoromethyl)-2-fluorophenyl)pyrazine-2-carboxamide] |
| 6.4 | 6730 | C[C@@H](c1cnc(N2C[C@H]3C[C@H]3C2=O)nc1)n1cc(NC(=O)c2cncc(-c3c(C(F)F)ccc(Cl)c3F)n2)cn1 [Example 172, 6-(3-Chloro-6-(difluoromethyl)-2-fluorophenyl)-N-(1-((S)-1-(2-((1R,5S)-2-oxo-3-azabicyclo[3.1.0]hexan-3-yl)pyrimidin-5-yl)ethyl)-1H-pyrazol-4-yl)pyrazine-2-carboxamide] |
| 6.5 | 9350 | C[C@@H](c1cnc(N2C[C@H]3C[C@H]3C2=O)nc1)n1cc(NC(=O)c2nc(-c3c(C(F)F)ccc(Cl)c3F)cnc2C(F)F)cn1 [Example 174, 6-(3-Chloro-6-(difluoromethyl)-2-fluorophenyl)-3-(difluoromethyl)-N-(1-((S)-1-(2-((1R,5S)-2-oxo-3-azabicyclo[3.1.0]hexan-3-yl)pyrimidin-5-yl)ethyl)-1H-pyrazol-4-yl)pyrazine-2-carboxamide] |
| 3 | 3680 | COCc1ncc(-c2c(C(F)F)ccc(Cl)c2F)nc1C(=O)Nc1cnn([C@@H](C)c2cnc(N3C[C@H]4C[C@H]4C3=O)nc2)c1 [Example 175, 6-(3-Chloro-6-(difluoromethyl)-2-fluorophenyl)-3-(methoxymethy-((S)-1-(2-((1R,5S)-2-oxo-3-azabicyclo[3.1.0]hexan-3-yl)pyrimidin-5-yl)ethyl)-1H-pyrazol-4-yl)pyrazine-2-carboxamide] |
